# Results reported in US12539292B2, “BRM targeting compounds and associated methods of use” (Arvinas Operations, Inc., priority 2018, dated 2026).
# Where two headings read alike, the source gives them in different places.
# Target: T1, BRM (Homo sapiens, UniProt P51531)
# T1 construct: In-Cell Western Screen of BRM Degradation in SW1573 Cells; endogenous in cells; host or cells: SW1573
# Assay: In-cell Western screen of BRM degradation in SW1573 cells (Dmax and DC50)
# Format: cell-based
# Settings: for Dmax: read-out: Dmax (%) (% degraded)
# Summary of the method: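 BRM levels were read by LI-COR in-cell Western after two-channel (800/680 nm) immunostaining of fixed, Triton-permeabilised SW1573 cells.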
# [1] = BRM degradation, SW1573 cells, Table 2D, read-out: *DC50
# [2] = BRM degradation, SW1573 cells, read-out: DC50
# [3] = BRM degradation, SW1573 cells, when tested at the top concentration of between 0.3 and 10 μM
# T1 sequence (P51531 whole entry): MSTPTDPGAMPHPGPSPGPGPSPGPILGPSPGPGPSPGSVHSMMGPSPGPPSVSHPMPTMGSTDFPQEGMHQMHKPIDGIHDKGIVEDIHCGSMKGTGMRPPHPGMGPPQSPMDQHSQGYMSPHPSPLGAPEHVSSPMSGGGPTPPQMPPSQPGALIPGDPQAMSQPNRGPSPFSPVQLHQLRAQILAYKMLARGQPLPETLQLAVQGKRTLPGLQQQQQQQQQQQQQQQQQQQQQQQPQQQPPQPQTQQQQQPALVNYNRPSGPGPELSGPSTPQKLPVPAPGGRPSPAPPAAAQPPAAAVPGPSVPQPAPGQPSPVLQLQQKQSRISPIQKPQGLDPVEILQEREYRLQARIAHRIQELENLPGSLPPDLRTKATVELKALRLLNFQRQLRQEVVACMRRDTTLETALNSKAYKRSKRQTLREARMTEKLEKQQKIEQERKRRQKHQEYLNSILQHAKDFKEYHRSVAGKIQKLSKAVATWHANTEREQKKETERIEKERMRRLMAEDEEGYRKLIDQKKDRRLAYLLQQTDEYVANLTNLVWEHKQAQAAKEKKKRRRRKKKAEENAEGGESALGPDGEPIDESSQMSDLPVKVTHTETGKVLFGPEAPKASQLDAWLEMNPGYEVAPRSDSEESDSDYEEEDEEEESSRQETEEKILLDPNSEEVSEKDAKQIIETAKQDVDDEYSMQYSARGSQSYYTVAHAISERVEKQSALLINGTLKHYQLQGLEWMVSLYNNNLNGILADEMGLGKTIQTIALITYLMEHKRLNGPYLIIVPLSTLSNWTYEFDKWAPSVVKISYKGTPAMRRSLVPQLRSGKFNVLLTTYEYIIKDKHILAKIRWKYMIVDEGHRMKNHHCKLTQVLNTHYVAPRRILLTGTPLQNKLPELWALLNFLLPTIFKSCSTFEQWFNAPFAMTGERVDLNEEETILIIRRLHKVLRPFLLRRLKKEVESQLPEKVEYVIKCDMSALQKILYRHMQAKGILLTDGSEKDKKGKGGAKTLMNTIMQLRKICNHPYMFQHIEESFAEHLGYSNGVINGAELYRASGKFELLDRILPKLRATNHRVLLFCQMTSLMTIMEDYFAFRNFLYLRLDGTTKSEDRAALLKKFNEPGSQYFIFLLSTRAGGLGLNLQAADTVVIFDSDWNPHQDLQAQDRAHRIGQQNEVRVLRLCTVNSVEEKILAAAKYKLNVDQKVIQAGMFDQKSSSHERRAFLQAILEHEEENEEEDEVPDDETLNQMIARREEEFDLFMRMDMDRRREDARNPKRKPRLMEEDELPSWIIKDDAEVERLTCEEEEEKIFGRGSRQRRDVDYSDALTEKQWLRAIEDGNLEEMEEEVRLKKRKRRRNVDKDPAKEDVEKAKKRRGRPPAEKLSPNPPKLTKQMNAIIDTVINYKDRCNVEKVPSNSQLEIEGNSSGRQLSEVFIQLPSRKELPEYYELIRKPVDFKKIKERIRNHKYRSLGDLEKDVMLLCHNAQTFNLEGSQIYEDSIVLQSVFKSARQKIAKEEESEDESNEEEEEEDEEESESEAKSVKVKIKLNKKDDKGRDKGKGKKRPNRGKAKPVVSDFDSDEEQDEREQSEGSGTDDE
structure (smiles),measurement,setting,value
"Cc1ncsc1-c1ccc([C@H](C)NC(=O)[C@@H]2C[C@@H](O)CN2C(=O)[C@H](c2cc(N3CCC4(CC3)CN(C[C@H]3C[C@H](Oc5cc(N6C7CCC6CN(c6cc(-c8ccccc8O)nnc6N)C7)ccn5)C3)CCO4)no2)C(C)C)cc1 [compound 623, (2S,4R)-1-((2S)-2-(3-(4-(((1r,3S)-3-((4-(3-(3-amino-6-(2-hydroxyphenyl)pyridazin-4-yl)-3,8-diazabicyclo[3.2.1]octan-8-yl)pyridin-2-yl)oxy)cyclobutyl)methyl)-1-oxa-4,9-diazaspiro[5.5]undecan-9-yl)isoxazol-5-yl)-3-methylbutanoyl)-4-hydroxy-N-((S)-1-(4-(4-methylthiazol-5-yl)phenyl)ethyl)pyrrolidine-2-carboxamide]",DC50,[1],> 30 nM
"Cc1ncsc1-c1ccc(CNC(=O)[C@@H]2C[C@@H](O)CN2C(=O)[C@@H](c2cc(OCCOCCOCCn3cc(-c4cc(-c5ccccc5O)nnc4N)cn3)no2)C(C)C)cc1 [compound 15, (2S,4R)-1-[(2R)-2-(3-[2-[2-(2-[4-[3-amino-6-(2-hydroxyphenyl)pyridazin-4-yl]-1H-pyrazol-1-yl]ethoxy)ethoxy]ethoxy]-1,2-oxazol-5-yl)-3-methylbutanoyl]-4-hydroxy-N-[[4-(4-methyl-1,3-thiazol-5-yl)phenyl]methyl]pyrrolidine-2-carboxamide]",DC50,[2],10 to 30 nM
same,Dmax,[3],> 75%
"Cc1ncsc1-c1ccc([C@@H](NC(=O)[C@@H]2C[C@@H](O)CN2C(=O)[C@H](c2cc(OCCN3CCN(CCOc4cc(N5C6CCC5CN(c5cc(-c7ccccc7O)nnc5N)C6)ccn4)CC3)no2)C(C)C)C(=O)N(C)C)cc1 [compound 171, (2S,4R)-1-((2S)-2-(3-(2-(4-(2-((4-(3-(3-amino-6-(2-hydroxyphenyl)pyridazin-4-yl)-3,8-diazabicyclo[3.2.1]octan-8-yl)pyridin-2-yl)oxy)ethyl)piperazin-1-yl)ethoxy)isoxazol-5-yl)-3-methylbutanoyl)-N-((R)-2-(dimethylamino)-1-(4-(4-methylthiazol-5-yl)phenyl)-2-oxoethyl)-4-hydroxypyrrolidine-2-carboxamide]",DC50,[2],> 30 nM
same,Dmax,"BRM degradation, SW1573 cells, tested at the top concentration of between 0.3 and 10 μM",50 to 75%
"Cc1ncn(C)c1-c1ccc([C@H](C)NC(=O)[C@@H]2C[C@@H](O)CN2C(=O)[C@H](c2cc(OCCN3CCC(O[C@H]4C[C@H](Oc5cc(N6C7CCC6CN(c6cc(-c8ccccc8O)nnc6N)C7)ccn5)C4)CC3)no2)C(C)C)cc1 [compound 365, (2S,4R)-1-((2S)-2-(3-(2-(4-((1r,3S)-3-((4-(3-(3-amino-6-(2-hydroxyphenyl)pyridazin-4-yl)-3,8-diazabicyclo[3.2.1]octan-8-yl)pyridin-2-yl)oxy)cyclobutoxy)piperidin-1-yl)ethoxy)isoxazol-5-yl)-3-methylbutanoyl)-N-((S)-1-(4-(1,4-dimethyl-1H-imidazol-5-yl)phenyl)ethyl)-4-hydroxypyrrolidine-2-carboxamide]",DC50,"target protein degradation, read-out: BRM DC50",> 30 nM
"COCc1ncsc1-c1ccc([C@H](C)NC(=O)[C@@H]2C[C@@H](O)CN2C(=O)[C@H](c2cc(OCCN3CCC(O[C@H]4C[C@H](Oc5cc(N6C7CCC6CN(c6cc(-c8ccccc8O)nnc6N)C7)ccn5)C4)CC3)no2)C(C)C)cc1 [compound 184, (2S,4R)-1-((2S)-2-(3-(2-(4-((1r,3S)-3-((4-(3-(3-amino-6-(2-hydroxyphenyl)pyridazin-4-yl)-3,8-diazabicyclo[3.2.1]octan-8-yl)pyridin-2-yl)oxy)cyclobutoxy)piperidin-1-yl)ethoxy)isoxazol-5-yl)-3-methylbutanoyl)-4-hydroxy-N-((S)-1-(4-(4-(methoxymethyl)thiazol-5-yl)phenyl)ethyl)pyrrolidine-2-carboxamide]",DC50,[2],> 30 nM
"CNC(=O)CCC[C@H](NC(=O)[C@@H]1C[C@@H](O)CN1C(=O)[C@H](c1cc(OCCN2CCC(O[C@H]3C[C@H](Oc4cc(N5C6CCC5CN(c5cc(-c7ccccc7O)nnc5N)C6)ccn4)C3)CC2)no1)C(C)C)c1ccc(-c2scnc2C)cc1 [compound 569, (2S,4R)-1-((2S)-2-(3-(2-(4-((1r,3S)-3-((4-(3-(3-amino-6-(2-hydroxyphenyl)pyridazin-4-yl)-3,8-diazabicyclo[3.2.1]octan-8-yl)pyridin-2-yl)oxy)cyclobutoxy)piperidin-1-yl)ethoxy)isoxazol-5-yl)-3-methylbutanoyl)-4-hydroxy-N-((S)-5-(methylamino)-1-(4-(4-methylthiazol-5-yl)phenyl)-5-oxopentyl)pyrrolidine-2-carboxamide]",DC50,[1],> 30 nM
"Cc1ncoc1-c1ccc([C@H](C)NC(=O)[C@@H]2C[C@@H](O)CN2C(=O)[C@@H](c2cc(OCCN3CCN(CCOc4cc(N5C6CCC5CN(c5cc(-c7ccccc7O)nnc5N)C6)ccn4)CC3)no2)C(C)C)cn1 [compound 117, (2S,4R)-1-((2R)-2-(3-(2-(4-(2-((4-(3-(3-amino-6-(2-hydroxyphenyl)pyridazin-4-yl)-3,8-diazabicyclo[3.2.1]octan-8-yl)pyridin-2-yl)oxy)ethyl)piperazin-1-yl)ethoxy)isoxazol-5-yl)-3-methylbutanoyl)-4-hydroxy-N-((S)-1-(6-(4-methyloxazol-5-yl)pyridin-3-yl)ethyl)pyrrolidine-2-carboxamide]",DC50,[2],2.5 to 10 nM
same,Dmax,[3],> 75%
"Cc1ncsc1-c1ccc([C@H](C)NC(=O)[C@@H]2C[C@@H](O)CN2C(=O)[C@H](c2cc(OCCOCCOCCOCCn3cc(-c4cc(-c5ccccc5O)nnc4N)cn3)no2)C(C)C)cc1 [compound 181, (2S,4R)-1-((S)-2-(3-(2-(2-(2-(2-(4-(3-amino-6-(2-hydroxyphenyl)pyridazin-4-yl)-1H-pyrazol-1-yl)ethoxy)ethoxy)ethoxy)ethoxy)isoxazol-5-yl)-3-methylbutanoyl)-4-hydroxy-N-((S)-1-(4-(4-methylthiazol-5-yl)phenyl)ethyl)pyrrolidine-2-carboxamide]",DC50,[2],> 30 nM
"Cc1cc([C@@H](C(=O)N2C[C@H](O)C[C@H]2C(=O)N[C@@H](C)c2ccc(-c3scnc3C)cc2)[C@H](C)COCCCCn2cc(-c3cc(-c4ccccc4O)nnc3N)cn2)on1 [compound 557, (2S,4R)-1-((2S,3S)-4-(4-(4-(3-amino-6-(2-hydroxyphenyl)pyridazin-4-yl)-1H-pyrazol-1-yl)butoxy)-3-methyl-2-(3-methylisoxazol-5-yl)butanoyl)-4-hydroxy-N-((S)-1-(4-(4-methylthiazol-5-yl)phenyl)ethyl) pyrrolidine-2-carboxamide]",DC50,[1],> 30 nM
"Cc1cc([C@@H](C(=O)N2C[C@H](O)C[C@H]2C(=O)N[C@H](COCCCCCc2cc(-c3ccccc3O)nnc2N)c2ccc(-c3scnc3C)cc2)C(C)C)on1 [compound 527, (2S,4R)-N-((S)-2-((5-(3-amino-6-(2-hydroxyphenyl)pyridazin-4-yl)pentyl)oxy)-1-(4-(4-methylthiazol-5-yl)phenyl)ethyl)-4-hydroxy-1-((S)-3-methyl-2-(3-methylisoxazol-5-yl)butanoyl)pyrrolidine-2-carboxamide]",DC50,"BRM degradation, read-out: BRM DC50",> 30 nM
"Cc1ncsc1-c1ccc([C@H](C)NC(=O)[C@@H]2C[C@@H](O)CN2C(=O)[C@@H](c2onc(OCCN3CCN(CCOc4cc(N5C6CCC5CN(c5cc(-c7ccccc7O)nnc5N)C6)ccn4)CC3)c2F)C(C)C)cc1 [compound 114, (2S,4R)-1-((2R)-2-(3-(2-(4-(2-((4-(3-(3-amino-6-(2-hydroxyphenyl)pyridazin-4-yl)-3,8-diazabicyclo[3.2.1]octan-8-yl)pyridin-2-yl)oxy)ethyl)piperazin-1-yl)ethoxy)-4-fluoroisoxazol-5-yl)-3-methylbutanoyl)-4-hydroxy-N-((S)-1-(4-(4-methylthiazol-5-yl)phenyl)ethyl)pyrrolidine-2-carboxamide]",DC50,[2],< 2.5 nM
same,Dmax,[3],> 75%
